From patent US20230374035A1, “RAS INHIBITORS” (Revolution Medicines, Inc., priority 2019, published 2023)
Where two headings read alike, the source gives them in different places.

Key:
NRAS Q61R = NRAS Q61R (Homo sapiens, UniProt P01111+P62937, Q61R); assay: Disruption of BRAF RBD interaction with Ras (FRET / MOA assay); type: biochemical; details: read-out: NRAS Q61R FRET data IC50
Description: (§1) Compound is present in plate wells as a 10-point 3-fold dilution series starting at a final concentration of 30 μM. […] Compounds that facilitate disruption of a Ras:RAF complex are identified as those eliciting a decrease in the TR-FRET ratio relative to DMSO control wells.
(§2) Note—The following protocol describes a procedure for monitoring disruption of K-Ras G12C (GMP-PNP) binding to BRAF^RBD by a compound of the invention. This protocol may also be executed substituting other Ras proteins or nucleotides.
(§3) The purpose of this biochemical assay was to measure the ability of test compounds to facilitate ternary complex formation between a nucleotide-loaded K-Ras isoform and Cyclophilin A; the resulting ternary complex disrupts binding to a BRAF^RBD construct, inhibiting K-Ras signaling through a RAF effector. Data is reported as IC50 values.
(§4) Compound was present in plate wells as a 10-point 3-fold dilution series starting at a final concentration of 30 μM. […] Compounds that facilitate disruption of a K-Ras:RAF complex were identified as those eliciting a decrease in the TR-FRET ratio relative to DMSO control wells.

KRAS Q61H = KRAS Q61H (Homo sapiens, UniProt P01116+P62937, Q61H); assay: Disruption of BRAF RBD interaction with K-Ras (FRET / MOA assay); type: biochemical; details: read-out: KRAS Q61H FRET data IC50
Sequence of KRAS Q61H (P01116 1-188 isoform P01116-2 Q61H): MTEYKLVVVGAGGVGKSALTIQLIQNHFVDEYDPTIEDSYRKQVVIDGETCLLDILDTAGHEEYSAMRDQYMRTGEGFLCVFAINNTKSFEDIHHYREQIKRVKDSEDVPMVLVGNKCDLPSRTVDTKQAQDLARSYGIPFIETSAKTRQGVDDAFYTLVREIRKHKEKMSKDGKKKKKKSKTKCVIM
Sequence of KRAS Q61H (P62937 whole entry): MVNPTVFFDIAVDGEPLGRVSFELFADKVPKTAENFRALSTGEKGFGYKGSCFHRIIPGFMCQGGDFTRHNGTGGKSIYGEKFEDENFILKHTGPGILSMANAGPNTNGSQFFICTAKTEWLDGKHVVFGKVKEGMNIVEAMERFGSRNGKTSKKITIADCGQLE
Description: as §1, §2, §3, §4

KRAS G12C = KRAS G12C (Homo sapiens, UniProt P01116+P62937, G12C); assay: as above; type: biochemical
Sequence of KRAS G12C (P01116 1-188 isoform P01116-2 G12C): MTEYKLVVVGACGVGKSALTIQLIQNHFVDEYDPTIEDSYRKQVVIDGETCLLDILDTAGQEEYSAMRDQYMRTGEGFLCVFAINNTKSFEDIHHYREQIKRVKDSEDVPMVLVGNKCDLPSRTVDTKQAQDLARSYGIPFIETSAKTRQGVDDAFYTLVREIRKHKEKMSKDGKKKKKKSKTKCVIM
Sequence of KRAS G12C (P62937 whole entry): as the sequence (P62937 whole entry) above
Description: as §1, §2, §3, §4

NRAS Q61K = NRAS Q61K (Homo sapiens, UniProt P01111+P62937, Q61K); assay: Disruption of BRAF RBD interaction with Ras (FRET / MOA assay); type: biochemical; details: read-out: NRAS Q61K FRET data IC50
Sequence of NRAS Q61K (P01111 whole entry Q61K): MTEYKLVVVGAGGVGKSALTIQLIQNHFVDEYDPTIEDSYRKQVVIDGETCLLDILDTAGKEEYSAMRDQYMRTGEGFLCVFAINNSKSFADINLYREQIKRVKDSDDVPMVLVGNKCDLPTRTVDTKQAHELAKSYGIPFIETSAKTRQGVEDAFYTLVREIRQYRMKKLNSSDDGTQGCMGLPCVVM
Sequence of NRAS Q61K (P62937 whole entry): as the sequence (P62937 whole entry) above
Description: as §1, §2, §3, §4

NCI-H358 (K-Ras G12C) = assay: CellTiter-Glo Cell Viability Assay; type: cell-based; details: Homo sapiens, NCI-H358, 120 h; H358, 5-day treatment
Description: Determination of Cell Viability in RAS Mutant Cancer Cell Lines
Protocol: CellTiter-Glo® Cell Viability Assay
Note—The following protocol describes a procedure for monitoring cell viability of K-Ras mutant cancer cell lines in response to a compound of the invention. Other RAS isoforms may be employed, though the number of cells to be seeded will vary based on cell line used.
Test compounds (132.5 nl) were directly dispensed into the assay plates containing cells. […] On day 5, assay plates and their contents were equilibrated to room temperature for approximately 30 minutes. […] Luminescence was measured using the PerkinElmer Enspire. Data were normalized by the following: (Sample signal/Avg. DMSO)*100. The data were fit using a four-parameter logistic fit.

NRAS WT = NRAS WT (Homo sapiens, UniProt P01111+P62937); assay: Disruption of BRAF RBD interaction with Ras (FRET / MOA assay); type: biochemical; details: read-out: NRAS WT FRET data IC50
Sequence of NRAS WT (P01111 whole entry): as the sequence (P01111 whole entry Q61K) above, with K61Q counted along it
Sequence of NRAS WT (P62937 whole entry): as the sequence (P62937 whole entry) above
Description: as §1, §2, §3, §4

[1] = read-out: KRAS G12C FRET data IC50

Sequence of NRAS Q61R (P01111 whole entry Q61R): as the sequence (P01111 whole entry Q61K) above, with K61R counted along it
Sequence of NRAS Q61R (P62937 whole entry): as the sequence (P62937 whole entry) above

Question: Which results are given for `CO[C@@H](C)c1ncccc1-c1c2c3cc(ccc3n1C)-c1cc(O)cc(c1)C[C@H](NC(=O)[C@H](C(C)C)N(C)C(C)=O)C(=O)N1CCC[C@H](N1)C(=O)OCC(C)(C)C2` (racemic) [Compound A104]?
Answer: IC50 (NRAS Q61R): > 10 µM; IC50 (KRAS Q61H): 1 to 10 µM

Question: How did the IC50 (NRAS Q61R) turn out when `CCn1c(-c2cccnc2[C@H](C)OC)c2c3cc(ccc31)-c1csc(n1)C[C@H](NC(=O)[C@H](C(C)C)N1CCC3(CN(S(C)(=O)=O)C3)C1=O)C(=O)N1CCC[C@H](N1)C(=O)OCC(C)(C)C2` (racemic) [Compound A234] was run?
Answer: > 10 µM

Question: And the IC50 (KRAS G12C; [1])?
Answer: > 10 µM

Question: And the IC50 (KRAS Q61H)?
Answer: 1 to 10 µM

Question: With `CCn1c(-c2cccnc2[C@H](C)OC)c2c3cc(ccc31)-c1csc(n1)C[C@H](NC(=O)[C@H](C(C)C)N(C)C(=O)N1CCC3(COC3)C1)C(=O)N1CCC[C@H](N1)C(=O)OCC(C)(C)C2` (atropisomer, axis not shown) [Compound A561] as the compound, how does the IC50 (NRAS Q61K) read?
Answer: 0.01 to 0.1 µM

Question: What about the IC50 (NRAS Q61R) of the same compound?
Answer: 0.01 to 0.1 µM

Question: What about the IC50 (NCI-H358 (K-Ras G12C)) of the same compound?
Answer: < 0.01 µM

Question: With `CCn1c(-c2cccnc2[C@H](C)OC)c2c3cc(ccc31)-c1cc(O)cc(c1)C[C@H](NS(=O)(=O)CC1CC1)C(=O)N1CCC[C@H](N1)C(=O)OCC(C)(C)C2` (racemic) [Compound A200] as the compound, how does the IC50 (KRAS G12C; [1]) read?
Answer: > 10 µM

Question: `CCn1c(-c2cccnc2[C@H](C)OC)c2c3cc(ccc31)-c1cc(O)cc(c1)C[C@H](NS(=O)(=O)N1CCOCC1)C(=O)N1CCC[C@H](N1)C(=O)OCC(C)(C)C2` (racemic) [Compound A194] was tested. Which IC50 (KRAS G12C) did it give?
Answer: > 10 µM

Question: How did the IC50 (KRAS G12C) turn out when `CCn1c(-c2cccnc2[C@H](C)OC)c2c3cc(ccc31)-c1csc(n1)C[C@H](NC(=O)[C@H](C(C)C)N1CCC3(CN(C(=O)OC)C3)C1=O)C(=O)N1CCC[C@H](N1)C(=O)OCC(C)(C)C2` (racemic) [Compound A235] was run?
Answer: > 10 µM

Question: How did the IC50 (NRAS Q61K) turn out when `CCn1c(-c2cccnc2[C@H](C)OC)c2c3cc(ccc31)-c1cc(cc(S(C)(=O)=O)c1)C[C@H](NC(=O)[C@H](C(C)C)N(C)C(C)=O)C(=O)N1CCC[C@H](N1)C(=O)OCC(C)(C)C2` (racemic) [Compound A154] was run?
Answer: > 10 µM

Question: And the IC50 (NRAS WT)?
Answer: > 10 µM

Question: What about the IC50 (NRAS Q61R) of the same compound?
Answer: > 10 µM

Question: What about the IC50 (KRAS G12C; [1]) of the same compound?
Answer: > 10 µM

Question: And the IC50 (KRAS Q61H)?
Answer: > 10 µM

Question: With `CCn1c(-c2cccnc2[C@H](C)OC)c2c3cc(ccc31)-c1csc(n1)C[C@H](NC(=O)[C@H](C(C)C)N(C)C(=O)N1CC(Cc3cnn(C)c3)C1)C(=O)N1CCC[C@H](N1)C(=O)OCC(C)(C)C2` (atropisomer, axis not shown) [Compound A500] as the compound, how does the IC50 (NRAS Q61K) read?
Answer: 0.01 to 0.1 µM

Question: And the IC50 (NRAS Q61R)?
Answer: 0.01 to 0.1 µM

Question: And the IC50 (NCI-H358 (K-Ras G12C))?
Answer: < 0.01 µM

Question: How did the IC50 (NRAS Q61K) turn out when `CCn1c(-c2cccnc2[C@H](C)OC)c2c3cc(ccc31)-c1cc(O)cc(c1)C[C@H](NS(=O)(=O)C1CS(=O)(=O)C1)C(=O)N1CCC[C@H](N1)C(=O)OCC(C)(C)C2` (racemic) [Compound A191] was run?
Answer: > 10 µM

Question: And the IC50 (NRAS WT)?
Answer: > 10 µM

Question: What about the IC50 (NRAS Q61R) of the same compound?
Answer: > 10 µM

Question: And the IC50 (KRAS G12C; [1])?
Answer: > 10 µM

Question: What about the IC50 (KRAS Q61H) of the same compound?
Answer: > 10 µM

Question: `CCn1c(-c2cccnc2[C@H](C)OC)c2c3cc(ccc31)-c1csc(n1)C[C@H](NC(=O)[C@H](C(C)C)N(C)C(=O)[C@H]1CCN(S(C)(=O)=O)C1)C(=O)N1CCC[C@H](N1)C(=O)OCC(C)(C)C2` (racemic) [Compound A237] was tested. Which IC50 (KRAS Q61H) did it give?
Answer: 1 to 10 µM

Question: What does the source list for `CCn1c(-c2cccnc2[C@H](C)OC)c2c3cc(ccc31)-c1csc(n1)C[C@H](NC(=O)[C@H](C(C)C)N(C)C(=O)N1CC[C@@H]1C)C(=O)N1CCC[C@H](N1)C(=O)OCC(C)(C)C2` (atropisomer, axis not shown) [Compound A304]?
Answer: IC50 (NRAS Q61K): 0.01 to 0.1 µM; IC50 (NRAS Q61R): 0.01 to 0.1 µM; IC50 (NCI-H358 (K-Ras G12C)): < 0.01 µM

Question: With `CCn1c(-c2cccnc2[C@H](C)OC)c2c3cc(ccc31)-c1csc(n1)C[C@H](NC(=O)[C@H](C(C)C)N(C)C(=O)N1CCN3C(=O)CN(C)C[C@@H]3C1)C(=O)N1CCC[C@H](N1)C(=O)OCC(C)(C)C2` (atropisomer, axis not shown) [Compound A536] as the compound, how does the IC50 (NRAS Q61K) read?
Answer: 0.01 to 0.1 µM

Question: What about the IC50 (NRAS Q61R) of the same compound?
Answer: 0.01 to 0.1 µM

Question: And the IC50 (NCI-H358 (K-Ras G12C))?
Answer: < 0.01 µM

Question: How did the IC50 (NRAS Q61K) turn out when `CO[C@@H](C)c1ncccc1-c1c2c3cc(ccc3n1CC(F)(F)F)-c1csc(n1)C[C@H](NC(=O)[C@H](C(C)C)N(C)C(=O)N1CC(N(C)C)C1)C(=O)N1CCC[C@H](N1)C(=O)OCC(C)(C)C2` (atropisomer, axis not shown) [Compound A328] was run?
Answer: > 10 µM

Question: What about the IC50 (NRAS WT) of the same compound?
Answer: > 10 µM

Question: And the IC50 (NRAS Q61R)?
Answer: > 10 µM

Question: And the IC50 (KRAS G12C; [1])?
Answer: > 10 µM

Question: What about the IC50 (KRAS Q61H) of the same compound?
Answer: > 10 µM
